Reference: US6087119A, “Method for determining the catalytic activity of factor IXa” (Roche Diagnostics GmbH, priority 1996, dated 2000)
Like-named read-outs stand apart in the source and are kept apart here.

Assays:
native FIXa (human) = native FIXa (human) (Homo sapiens, UniProt P00740); settings: MeSO2-D-HHT-Gly-Arg-pNA
Excerpt: Influence of the pH on the Activity of rFIXa and Native FIXa in the Presence of Ethylene Glycol
1.02 mmol/l MeSO2 -D-HHT-Gly-Arg-pNA, MOC-D-Nle-Gly-Arg-pNA or MeSO2 -D-CHG-Gly-Arg-pNA
0.14 μmol/l native FIXa (human)

rFIXa (human) = rFIXa (human) (Homo sapiens, UniProt P00740); experiment: Influence of the pH on the activity of rFIXa in the presence of ethylene glycol; type: biochemical; parameters: coding for the FIX protease domain from amino acid position 181 to 415; Met (ATG start codon) (N); made in house; settings: 25% ethylene glycol; for increase of cleavage rates: pH 7.0-10.0; for cleavage rate mA/min: rFIXa (human)
Sequence of rFIXa (human) (P00740 227-461): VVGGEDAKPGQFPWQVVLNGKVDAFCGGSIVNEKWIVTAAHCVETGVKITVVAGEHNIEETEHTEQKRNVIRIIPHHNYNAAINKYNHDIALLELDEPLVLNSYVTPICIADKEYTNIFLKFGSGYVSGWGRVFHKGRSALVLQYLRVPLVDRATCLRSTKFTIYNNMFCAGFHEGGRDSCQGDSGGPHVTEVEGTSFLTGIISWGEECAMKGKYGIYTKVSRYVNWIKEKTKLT
Sequence of rFIXa (human) (P00740 131-226): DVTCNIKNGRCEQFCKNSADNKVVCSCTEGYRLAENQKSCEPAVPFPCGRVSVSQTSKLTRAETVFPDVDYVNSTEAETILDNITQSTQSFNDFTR
Excerpt: 0.28 μmol/l rFIXa (human)

Sequence of native FIXa (human) (P00740 227-461 limits assumed): as the sequence (P00740 227-461) above
Sequence of native FIXa (human) (P00740 47-191 partner limits assumed): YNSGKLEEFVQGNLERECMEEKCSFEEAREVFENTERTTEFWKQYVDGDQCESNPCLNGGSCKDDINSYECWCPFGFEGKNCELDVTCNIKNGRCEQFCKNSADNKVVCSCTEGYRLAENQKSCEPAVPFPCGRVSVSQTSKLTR

OCCO [Ethylene glycol]
cleavage rate mA/min (native FIXa (human); pH 7.0, 25% ethylene glycol): 23.7 mA/min | cleavage rate mA/min (native FIXa (human); pH 7.5, 25% ethylene glycol): 63.0 mA/min | cleavage rate mA/min (native FIXa (human); pH 8.0, 25% ethylene glycol): 101.0 mA/min | cleavage rate mA/min (native FIXa (human); pH 8.25, 25% ethylene glycol): 106.7 mA/min | cleavage rate mA/min (native FIXa (human); pH 8.5, 25% ethylene glycol): 115.4 mA/min | cleavage rate mA/min (native FIXa (human); pH 8.75, 25% ethylene glycol): 110.9 mA/min | cleavage rate mA/min (native FIXa (human); pH 9.0, 25% ethylene glycol): 105.6 mA/min | cleavage rate mA/min (native FIXa (human); pH 9.5, 25% ethylene glycol): 100.6 mA/min | cleavage rate mA/min (native FIXa (human); pH 10.0, 25% ethylene glycol): 77.2 mA/min | increase of cleavage rates (rFIXa (human); substrate MOC-D-Nle-Gly-Arg-pNA): 14 fold | increase of cleavage rates (rFIXa (human); substrate MeSO2-D-CHG-Gly-Arg-pNA): 20 fold | increase of cleavage rates (rFIXa (human); substrate MeSO2-D-HHT-Gly-Arg-pNA): 10 fold | cleavage rate mA/min (rFIXa (human); pH 7.0, MOC-D-Nle-Gly-Arg-pNA): 31.5 mA/min | cleavage rate mA/min (rFIXa (human); pH 7.0, MeSO2-D-CHG-Gly-Arg-pNA): 154.7 mA/min | cleavage rate mA/min (rFIXa (human); pH 7.0, MeSO2-D-HHT-Gly-Arg-pNA): 56.5 mA/min | cleavage rate mA/min (rFIXa (human); pH 7.5, MOC-D-Nle-Gly-Arg-pNA): 70.1 mA/min | cleavage rate mA/min (rFIXa (human); pH 7.5, MeSO2-D-CHG-Gly-Arg-pNA): 289.8 mA/min | cleavage rate mA/min (rFIXa (human); pH 7.5, MeSO2-D-HHT-Gly-Arg-pNA): 124.5 mA/min | cleavage rate mA/min (rFIXa (human); pH 8.0, MOC-D-Nle-Gly-Arg-pNA): 99.7 mA/min | cleavage rate mA/min (rFIXa (human); pH 8.0, MeSO2-D-CHG-Gly-Arg-pNA): 372.4 mA/min | cleavage rate mA/min (rFIXa (human); pH 8.0, MeSO2-D-HHT-Gly-Arg-pNA): 173.6 mA/min | cleavage rate mA/min (rFIXa (human); pH 8.25, MOC-D-Nle-Gly-Arg-pNA): 102.7 mA/min | cleavage rate mA/min (rFIXa (human); pH 8.25, MeSO2-D-CHG-Gly-Arg-pNA): 382.2 mA/min | cleavage rate mA/min (rFIXa (human); pH 8.25, MeSO2-D-HHT-Gly-Arg-pNA): 176.0 mA/min | cleavage rate mA/min (rFIXa (human); pH 8.5, MOC-D-Nle-Gly-Arg-pNA): 104.3 mA/min | cleavage rate mA/min (rFIXa (human); pH 8.5, MeSO2-D-CHG-Gly-Arg-pNA): 389.8 mA/min | cleavage rate mA/min (rFIXa (human); pH 8.5, MeSO2-D-HHT-Gly-Arg-pNA): 182.1 mA/min | cleavage rate mA/min (rFIXa (human); pH 8.75, MOC-D-Nle-Gly-Arg-pNA): 101.6 mA/min | cleavage rate mA/min (rFIXa (human); pH 8.75, MeSO2-D-CHG-Gly-Arg-pNA): 395.6 mA/min | cleavage rate mA/min (rFIXa (human); pH 8.75, MeSO2-D-HHT-Gly-Arg-pNA): 170.7 mA/min | cleavage rate mA/min (rFIXa (human); pH 9.0, MOC-D-Nle-Gly-Arg-pNA): 97.3 mA/min | cleavage rate mA/min (rFIXa (human); pH 9.0, MeSO2-D-CHG-Gly-Arg-pNA): 373.3 mA/min | cleavage rate mA/min (rFIXa (human); pH 9.0, MeSO2-D-HHT-Gly-Arg-pNA): 164.1 mA/min | cleavage rate mA/min (rFIXa (human); pH 9.5, MOC-D-Nle-Gly-Arg-pNA): 70.7 mA/min | cleavage rate mA/min (rFIXa (human); pH 9.5, MeSO2-D-CHG-Gly-Arg-pNA): 255.6 mA/min | cleavage rate mA/min (rFIXa (human); pH 9.5, MeSO2-D-HHT-Gly-Arg-pNA): 112.0 mA/min | cleavage rate mA/min (rFIXa (human); pH 10.0, MOC-D-Nle-Gly-Arg-pNA): 68.3 mA/min | cleavage rate mA/min (rFIXa (human); pH 10.0, MeSO2-D-CHG-Gly-Arg-pNA): 244.5 mA/min | cleavage rate mA/min (rFIXa (human); pH 10.0, MeSO2-D-HHT-Gly-Arg-pNA): 110.1 mA/min
